Test systems include Staphylococcus aureus; Escherichia coli DC2; Escherichia coli BL21AI; Staphylococcus aureus 75; Escherichia coli 780; Escherichia coli 804; Serratia rubidaea X01.
Holding throughout (test): ≥ marks a high value that may be exact or a test limit, other limits are often not marked, values filed in µg/mL are converted to µM
Assay [1] concerns Streptococcus mitis ATCC 903.
The test system of assay [2] is Streptococcus gordonii Challis DL1.
Assay [3] deals with Streptococcus sanguinis NY101.
Assay [4] deals with Pseudomonas aeruginosa PAK.
The test system of assay [5] is Streptococcus mutans UA159.
Assay [6] deals with Klebsiella pneumoniae DSM 681.
Assay [7] deals with Bacillus subtilis DSM 347.
Assay [8] deals with Micrococcus luteus ATCC 10240.
In assay [9] the test system is Escherichia coli DSM 1103.
Assay [10] deals with Acinetobacter baumannii 9931.
For assay [11], the system named is Staphylococcus epidermidis ATCC 12228.
The subject of assay [12] is Acinetobacter baumannii 97830.
Assay [13] relates to Acinetobacter baumannii ATCC 19606.
Assay [14] relates to Bacillus subtilis ATCC 23857.
Assay [15] concerns Staphylococcus aureus 113.
For assay [16], the system named is Staphylococcus aureus ATCC 25923.
Assay [17] has as its system Klebsiella pneumoniae ATCC 700603.
Assay [18] deals with Escherichia coli ATCC 25922.
The subject of assay [19] is Staphylococcus aureus ATCC 29213.
Assay [20] relates to Pseudomonas aeruginosa ATCC 9027.
The test system of assay [21] is Pseudomonas aeruginosa 73.
The test system of assay [22] is Pseudomonas aeruginosa ATCC 27853.
For assay [23], the system named is Pseudomonas aeruginosa 50.
For assay [24], the system named is Escherichia coli IFO 3301.
Assay [25] has as its system Bacillus subtilis IFO 3336.
Assay [26] has as its system Staphylococcus aureus ATCC 2592.
The subject of assay [27] is Staphylococcus carnosus KHS.
Assay [28] deals with Psychrobacter faecalis X29.
Assay [29] deals with Rhodococcus rhodochrous X15.
The subject of assay [30] is Bacillus licheniformis X39.

≈ marks a conversion by molar mass, not a printed value. Where “and” joins values, the source holds several entries; their conditions need not be identical. Identical values can stand only once.

Results on 7 molecules are retold here after DBAASP.

As a reminder, the MIC is the lowest concentration that inhibits growth of the organism. Low readings indicate a more susceptible organism, high ones a less susceptible organism. As for `CC[C@H](C)[C@H](NC(=O)[C@H](Cc1ccccc1)NC(=O)[C@H](Cc1cnc[nH]1)NC(=O)[C@H](CCCCN)NC(=O)[C@@H](NC(=O)[C@@H](N)Cc1ccccc1)[C@@H](C)CC)C(=O)N[C@@H](Cc1cnc[nH]1)C(=O)N[C@@H](CCCN=C(N)N)C(=O)N[C@@H](Cc1ccccc1)C(=O)NCC(=O)NCC(=O)NCC(=O)N[C@@H](Cc1ccccc1)C(=O)N[C@@H](CCCCN)C(=O)N[C@@H](CCCCN)C(=O)N[C@@H](Cc1ccccc1)C(=O)N[C@@H](Cc1c[nH]c2ccccc12)C(=O)N[C@@H](CCCCN)C(=O)N[C@@H](Cc1c[nH]c2ccccc12)C(=O)N[C@@H](Cc1ccccc1)C(=O)N[C@@H](CCCN=C(N)N)C(=O)N[C@@H](CCCN=C(N)N)C(=O)N[C@@H](Cc1ccccc1)C(N)=O` [FIKHFIHRFGGGFKKFWKWFRRF], the MIC against Staphylococcus aureus amounted to 5.21 µM (≈ 16 µg/mL); in assay [1], 10.4 µM (≈ 32 µg/mL); in [2] it was 20.3 µM (≈ 62.5 µg/mL); in assay [3], 5.21 µM (≈ 16 µg/mL); in [4], 20.3 µM (≈ 62.5 µg/mL); in [5], 1.3 µM (≈ 4 µg/mL).

On to `CC[C@H](C)[C@H](NC(=O)[C@H](Cc1ccc(O)cc1)NC(=O)[C@@H](NC(=O)[C@@H]1CCCN1C(=O)[C@H](CCCCN)NC(=O)[C@H](CC(N)=O)NC(=O)[C@H](CC(N)=O)NC(=O)CN)C(C)C)C(=O)N1CCC[C@H]1C(=O)N[C@@H](CCCN=C(N)N)C(=O)N1CCC[C@H]1C(=O)N[C@@H](CCCN=C(N)N)C(=O)N1CCC[C@H]1C(=O)N1CCC[C@H]1C(=O)N[C@@H](Cc1cnc[nH]1)C(=O)N1CCC[C@H]1C(=O)N[C@@H](CCCN=C(N)N)C(=O)N[C@@H](CC(C)C)C(=O)N[C@H](C(N)=O)C(C)C` [GNNKPVYIPRPRPPHPRLV], for which the MIC in [6] is 14.2 µM (≈ 31.2 µg/mL); against Escherichia coli DC2 it was 3.54 µM (≈ 7.81 µg/mL); in assay [7] it was no less than 56.6 µM; in [8], 0.109 µM (≈ 0.24 µg/mL); in [9] it was 1.77 µM (≈ 3.9 µg/mL); in the assay on Escherichia coli BL21AI it was 3.54 µM (≈ 7.81 µg/mL).

With `CC[C@H](C)[C@H](NC(=O)[C@H](Cc1ccc(O)cc1)NC(=O)[C@@H](NC(=O)[C@@H]1CCCN1C(=O)[C@H](CCCN=C(N)N)NC(=O)[C@H](CC(N)=O)NC(=O)[C@H](CC(N)=O)NC(=O)CNC(C)=O)C(C)C)C(=O)N1CCC[C@H]1C(=O)N[C@@H](CCCN=C(N)N)C(=O)N1CCC[C@H]1C(=O)N[C@@H](CCCN=C(N)N)C(=O)N1CCC[C@H]1C(=O)N1CCC[C@H]1C(=O)N[C@@H](Cc1cnc[nH]1)C(=O)N1CCC[C@H]1C(=O)N[C@@H](CCCN=C(N)N)C(=O)N[C@@H](CC(C)C)C(N)=O` [GNNRPVYIPRPRPPHPRL], the MIC is 1.83 µM (≈ 3.97 µg/mL) in assay [6]; 1.83 µM (≈ 3.97 µg/mL) in the assay on Escherichia coli DC2; no less than 58.5 µM in assay [7]; 0.913 µM (≈ 1.99 µg/mL) in assay [8]; 1.83 µM (≈ 3.97 µg/mL) in assay [9]; 1.49 µM (≈ 3.25 µg/mL) in the assay with Escherichia coli BL21AI.

For the molecule `NCC(=O)N[C@@H](CCCN=C(N)N)C(=O)N[C@@H](Cc1c[nH]c2ccccc12)C(=O)N[C@@H](Cc1c[nH]c2ccccc12)C(=O)N[C@@H](Cc1c[nH]c2ccccc12)C(=O)N[C@@H](CCCN=C(N)N)C(=O)NCC(N)=O` [GRWWWRG], the MIC was no less than 128 µM in [10]; 64 µM (≈ 64.1 µg/mL) in assay [11]; no less than 128 µM in assay [12]; greater than 128 µM in assay [13]; 16 µM (≈ 16 µg/mL) in [14]; no less than 64 µM in the assay with Staphylococcus aureus 75. Also, the MIC in assay [15] was no less than 64 µM; in [16], 64 µM and 128 µM; in [17], greater than 128 µM; in [18], greater than 128 µM; in assay [19], 8 µM (≈ 8.02 µg/mL); in [20], greater than 128 µM. In addition, the MIC in [21] was no less than 128 µM; against Escherichia coli 780 it was no less than 128 µM; with Escherichia coli 804 it was no less than 128 µM; in assay [22], greater than 128 µM; in assay [23], no less than 128 µM.

Consider `NC(N)=NCCC[C@H](NC(=O)[C@H](Cc1cnc[nH]1)NC(=O)[C@H](CCCN=C(N)N)NC(=O)[C@H](Cc1cnc[nH]1)NC(=O)[C@H](CCCN=C(N)N)NC(=O)[C@H](Cc1cnc[nH]1)NC(=O)[C@@H](N)CCCN=C(N)N)C(=O)N[C@@H](Cc1cnc[nH]1)C(=O)O` [RHRHRHRH], for which the MIC in [24] and in [25] was 8.39 µM (≈ 10 µg/mL) each time.

Regarding `CC[C@H](C)[C@H](NC(=O)CNC(=O)[C@H](CCCCN)NC(=O)[C@@H](NC(=O)[C@H](CC(C)C)NC(=O)CNC(=O)[C@H](CC(N)=O)NC(=O)[C@H](CCCCN)NC(=O)[C@@H](NC(=O)[C@H](Cc1c[nH]c2ccccc12)NC(=O)[C@H](CO)NC(=O)CNC(=O)[C@H](CCCCN)NC(=O)CNC(=O)[C@H](CCCCN)NC(=O)[C@H](CCCCN)NC(=O)[C@H](Cc1ccccc1)NC(=O)[C@H](CO)NC(=O)[C@@H](NC(=O)[C@@H](N)CCCN=C(N)N)[C@@H](C)CC)[C@@H](C)CC)[C@@H](C)CC)C(=O)N[C@@H](CCCCN)C(=O)NCC(=O)N[C@@H](CC(C)C)C(=O)NCC(=O)N[C@@H](CCCCN)C(=O)N[C@@H](CCC(=O)O)C(=O)N[C@H](C(=O)N[C@@H](CO)C(=O)N[C@@H](CC(C)C)C(=O)N[C@@H](CC(=O)O)C(=O)N[C@H](C(=O)N[C@H](C(=O)N[C@@H](CCCN=C(N)N)C(=O)N[C@H](C(=O)NCC(=O)N[C@H](C(=O)N[C@@H](CC(=O)O)C(=O)N[C@H](C(=O)N[C@@H](C)C(=O)NCC(=O)N[C@H]1CSSC[C@@H](C(=O)O)NC(=O)[C@H](CCC(=O)O)NC(=O)CNC(=O)[C@H](CCCCN)NC(=O)[C@H]([C@@H](C)CC)NC(=O)[C@H](CCCCN)NC1=O)[C@@H](C)CC)[C@@H](C)CC)[C@@H](C)O)[C@@H](C)CC)C(C)C)[C@@H](C)CC` [RISFKKGKGSWIKNGLIKGIKGLGKEISLDVIRTGIDIAGCKIKGEC], the MIC against Serratia rubidaea X01 is 10 µM (≈ 50.3 µg/mL); in assay [26], 0.6 µM (≈ 3.02 µg/mL); in assay [18] it was 5 µM (≈ 25.1 µg/mL); in [27] it was 1.3 µM (≈ 6.54 µg/mL); in assay [28], 0.6 µM (≈ 3.02 µg/mL); in assay [29] it was 0.3 µM (≈ 1.51 µg/mL). In addition, the MIC in assay [30] came to 10 µM (≈ 50.3 µg/mL).

With `CC(C)[C@H](N)C(=O)N[C@@H](CCCN=C(N)N)C(=O)N[C@@H](Cc1c[nH]c2ccccc12)C(=O)N[C@@H](Cc1c[nH]c2ccccc12)C(=O)N[C@@H](Cc1c[nH]c2ccccc12)C(=O)N[C@@H](CCCN=C(N)N)C(=O)N[C@H](C(N)=O)C(C)C` [VRWWWRV], the MIC was no less than 128 µM in assay [10]; 8 µM (≈ 8.69 µg/mL) in assay [11]; no less than 128 µM in assay [12]; 128 µM (≈ 139 µg/mL) in assay [13]; 8 µM (≈ 8.69 µg/mL) in assay [14]; no less than 32 µM against Staphylococcus aureus 75. Further, the MIC in assay [15] is no less than 32 µM; in [17], 64 µM (≈ 69.5 µg/mL); in [19], 32 µM (≈ 34.8 µg/mL); in [20] it was 64 µM (≈ 69.5 µg/mL); in assay [21], no less than 128 µM; against Escherichia coli 780 it was no less than 64 µM. In addition, the MIC was no less than 64 µM in the assay with Escherichia coli 804, 64 µM (≈ 69.5 µg/mL) in assay [22] and no less than 64 µM in assay [23].
